Test results: US12195469B2, “Compounds having PDE9A inhibitory activity, and pharmaceutical uses thereof” (KOREA RESEARCH INSTITUTE OF CHEMICAL TECHNOLOGY, priority 2018, dated 2025)

Each compound was assayed against PDE9A (Homo sapiens (Human), UniProt O76083) (assay: PDE9A inhibition, fluorescence polarization assay (IMAP-FP screening express kit)). Conditions: 10 μM of the compound.
Type: biochemical
Protocol: The inhibitory activity of the representative compounds according to the present invention against phosphodiesterase 9A was tested based on the polarization assay (IMAP-FP screening express kit) provided by MDS (MDS Analytical Technologies, Sunyvale, CA, USA). As a buffer solution, a reaction solution (a reaction solution containing 0.01% Tween 20 provided by MDS was diluted 5 times, then 5 mM DTT is added) and a polarization detection solution (binding solution A and B provided by MDS were mixed at a ratio of 3:1 and IMAP binding reagent 1/600 was added) were prepared. 100 μM of the substrate (Fl-cGMP substrate; MDS) and 3.6 μg/ml of the enzyme PDE9A (ab54113; abcam) were prepared. 3.6 μg/ml PDE9A and 100 μM substrate were diluted to 20 ng/ml (final reaction concentration: 5 ng/ml) and 400 nM (final reaction concentration: 100 nM), respectively. The buffer solution used for all dilution and preparation processes was 1× reaction solution with 1 mM DTT added, and the polarization detection solution was used to induce polarization at the end.
The prepared samples were dispensed on black microplates (Multiwell 384 well plates, #3573, Corning Life Sciences, Lowell, MA, USA) using a 16-channel pipette (multi 16-channel, Finnpipette, Thermo Scientific, Essex, UK). The total reaction volume per well is 20 μl. At this time, 10 μl of 2% DMSO, 5 μl of substrate solution, and 5 μl of reaction solution were used as a negative control, and 10 μl of 2% DMSO, 5 μl of substrate solution, and 5 μl of PDE9A solution were used as a positive control. As the experimental group, 10 μl of the compound prepared in Example, 5 μl of the substrate solution, and 5 μl of the PDE9A solution were used. After pretreatment between the compound and the enzyme was performed for about 10 minutes before the enzyme-substrate reaction, 5 μl of cGMP was added to induce the enzyme reaction. During the reaction, each compound, enzyme, and substrate occupied 50%, 25%, and 25% of the total volume, respectively, and they were prepared at high concentrations of 2, 4, and 4 times, respectively, immediately before addition. After the enzymatic reaction, it was shaken lightly for 1 minute and the enzyme reaction was induced at room temperature for 1 hour. Then, 60 μl of a polarization detection solution prepared in advance was added to induce polarization.
Nanoparticles composed of trivalent metal ions are mixed in the fluorescence detection solution, which combines with phosphoric acid expose by enzymatic reaction to increase the molecular weight and induce polarization. After leaving for 2 hours at room temperature, the polarization (Fluorescence Polarization, FP) value was measured using a multilabel counter (Envision, PerkinElmer, Turku, Finland) (emission wavelength: P-535 nm, S-535 nm, excitation wavelength: 480 nm), and the result was expressed as an IC50 value, which is the concentration of the compound that inhibited PDE9A by 50% in vitro (Table 2).

Chain of PDE9A (O76083 whole entry): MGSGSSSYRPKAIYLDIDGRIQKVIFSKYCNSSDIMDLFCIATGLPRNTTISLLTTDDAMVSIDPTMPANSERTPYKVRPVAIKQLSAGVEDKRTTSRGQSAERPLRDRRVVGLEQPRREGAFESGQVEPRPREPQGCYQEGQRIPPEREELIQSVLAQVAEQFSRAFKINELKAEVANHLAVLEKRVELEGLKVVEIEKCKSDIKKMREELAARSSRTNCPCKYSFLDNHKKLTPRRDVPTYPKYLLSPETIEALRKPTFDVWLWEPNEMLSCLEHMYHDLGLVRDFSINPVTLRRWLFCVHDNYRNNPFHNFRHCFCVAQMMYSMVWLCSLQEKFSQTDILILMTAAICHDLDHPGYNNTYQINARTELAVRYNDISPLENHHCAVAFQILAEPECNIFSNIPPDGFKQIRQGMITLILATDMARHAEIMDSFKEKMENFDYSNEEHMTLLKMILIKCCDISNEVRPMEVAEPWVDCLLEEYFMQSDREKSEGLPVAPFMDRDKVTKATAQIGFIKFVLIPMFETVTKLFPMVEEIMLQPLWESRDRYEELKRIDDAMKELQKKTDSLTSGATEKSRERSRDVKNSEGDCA

For O=c1[nH]c(SCc2nc3cc(Cl)cc(Cl)c3o2)nc2c1cnn2-c1ccccc1 [Example 32, 6-(((5,7-dichlorobenzo[d]oxazol-2-yl)methyl)thio)-1-phenyl-1,5-dihydro-4H-pyrazolo[3,4-d]pyrimidin-4-one], the inhibition at 10 µM was 27.7%.

Same assay, conditions: Fl-cGMP substrate 100 nM, PDE9A 5 ng/ml, 1 hour at room temperature

Going from O=c1[nH]c(SCc2nc3cc(Cl)c([N+](=O)[O-])cc3o2)nc2c1cnn2C1CCOCC1 [Example 51, 6-(((5-chloro-6-nitrobenzo[d]oxazol-2-yl)methyl)thio)-1-(tetrahydro-2H-pyran-4-yl)-1,5-dihydro-4H-pyrazolo[3,4-d]pyrimidin-4-one] to O=c1[nH]c(SCc2nc3ccc([N+](=O)[O-])cc3o2)nc2c1cnn2C1CCOCC1 [Example 48, 6-(((6-nitrobenzo[d]oxazol-2-yl)methyl)thio)-1-(tetrahydro-2H-pyran-4-yl)-1,5-dihydro-4H-pyrazolo[3,4-d]pyrimidin-4-one], the IC50 falls from 35 nM to 23 nM (1.5-fold). The second is the more potent here.

Compared with Cc1cccc2oc(CSc3nc4c(cnn4C4CCC(F)(F)CC4)c(=O)[nH]3)nc12 [Example 41, 1-(4,4-difluorocyclohexyl)-6-(((4-methylbenzo[d]oxazol-2-yl)methyl)thio)-1,5-dihydro-4H-pyrazolo[3,4-d]pyrimidin-4-one], O=c1[nH]c(SCc2nc3ccccc3o2)nc2c1cnn2C1CCC(F)(F)CC1 [Example 8, 6-((benzo[d]oxazol-2-ylmethyl)thio)-1-(4,4-difluorocyclohexyl)-1,5-dihydro-4H-pyrazolo[3,4-d]pyrimidin-4-one] is 4.4-fold lower in IC50: 22 nM for the first, 5 nM for the second.

COc1ccc2nc(CSc3nc4c(cnn4C4CCOCC4)c(=O)[nH]3)oc2c1 [Example 56, 6-(((6-methoxybenzo[d]oxazol-2-yl)methyl)thio)-1-(tetrahydro-2H-pyran-4-yl)-1,5-dihydro-4H-pyrazolo[3,4-d]pyrimidin-4-one] and COc1ccc2nc(CSc3nc4c(cnn4C4CCC(F)(F)CC4)c(=O)[nH]3)oc2c1 [Example 46, 1-(4,4-difluorocyclohexyl)-6-(((6-methoxybenzo[d]oxazol-2-yl)methyl)thio)-1,5-dihydro-4H-pyrazolo[3,4-d]pyrimidin-4-one] are the same in IC50: 3 nM for the first, 3 nM for the second.

Going from Cc1ccc2nc(CSc3nc4c(cnn4-c4ccccc4)c(=O)[nH]3)oc2c1 [Example 5, 6-(((6-methylbenzo[d]oxazol-2-yl)methyl)thio)-1-phenyl-1,5-dihydro-4H-pyrazolol[3,4-d]pyrimidin-4-one] to Cc1ccc2oc(CSc3nc4c(cnn4-c4ccccc4)c(=O)[nH]3)nc2c1 [Example 3, 6-(((5-methylbenzo[d]oxazol-2-yl)methyl)thio)-1-phenyl-1,5-dihydro-4H-pyrazolo[3,4-d]pyrimidin-4-one], the IC50 rises from 49 nM to 81 nM (1.7-fold).

Compared with Cc1ccc2nc(CSc3nc4c(cnn4C4CC4)c(=O)[nH]3)oc2c1 [Example 17, 6-(((6-methylbenzo[d]oxazol-2-yl)methyl)thio)-1-cyclopropyl-1,5-dihydro-4H-pyrazolo[3,4-d]pyrimidin-4-one], Cc1ccc2nc(CSc3nc4c(cnn4C4CCCCC4)c(=O)[nH]3)oc2c1 [Example 16, 6-(((6-methylbenzo[d]oxazol-2-yl)methyl)thio)-1-cyclohexyl-1,5-dihydro-4H-pyrazolo[3,4-d]pyrimidin-4-one] is 32-fold lower in IC50: 190 nM for the first, 6 nM for the second.

Going from Cc1cccc2oc(CSc3nc4c(cnn4-c4ccccc4)c(=O)[nH]3)nc12 [Example 26, 6-(((4-methylbenzo[d]oxazol-2-yl)methyl)thio)-1-phenyl-1,5-dihydro-4H-pyrazole[3,4-d]pyrimidin-4-one] to O=c1[nH]c(SCc2nc3c([N+](=O)[O-])cccc3o2)nc2c1cnn2-c1ccccc1 [Example 30, 6-(((4-nitrobenzo[d]oxazol-2-yl)methyl)thio)-1-phenyl-1,5-dihydro-4H-pyrazolo[3,4-d]pyrimidin-4-one], the IC50 rises from 140 nM to 1720 nM (12-fold). The first is the more potent here.

First: O=c1[nH]c(SCc2nc3cc(F)ccc3o2)nc2c1cnn2-c1ccccc1 [Example 4, 6-(((5-fluorobenzo[d]oxazol-2-yl)methyl)thio)-1-phenyl-1,5-dihydro-4H-pyrazolo[3,4-d]pyrimidin-4-one]
Second: CC(C)(C)c1ccc2oc(CSc3nc4c(cnn4-c4ccccc4)c(=O)[nH]3)nc2c1 [Example 27, 6-(((5-(tert-butyl)benzo[d]oxazol-2-yl)methyl)thio)-1-phenyl-1,5-dihydro-4H-pyrazolo[3,4-d]pyrimidin-4-one]
The IC50 of the first is 80-fold lower: 83 nM for the first, 6630 nM for the second. The first is the more potent here.

First: Cc1ccc2nc(C(C)Sc3nc4c(cnn4C4CCOCC4)c(=O)[nH]3)oc2c1 (centres unmarked) [Example 23, 6-((1-(6-methylbenzo[d]oxazol-2-yl)ethyl)thio)-1-(tetrahydro-2H-pyran-4-yl)-1,5-dihydro-4H-pyrazolo[3,4-d]pyrimidin-4-one]
Second: CC(Sc1nc2c(cnn2C2CCOCC2)c(=O)[nH]1)c1nc2ccccc2o1 (centres unmarked) [Example 21]
The IC50 of the first is 1.5-fold lower: 2 nM for the first, 3 nM for the second.

Going from Cc1ccc2nc(C(C)Sc3nc4c(cnn4C4CCC(F)(F)CC4)c(=O)[nH]3)oc2c1 (centres unmarked) [Example 22, 1-(4,4-difluorocyclohexyl)-6-((1-(6-methylbenzo[d]oxazol-2-yl)ethyl)thio)-1,5-dihydro-4H-pyrazolo[3,4-d]pyrimidin-4-one] to O=c1[nH]c(SCc2nc3ccc([N+](=O)[O-])cc3o2)nc2c1cnn2C1CCC(F)(F)CC1 [Example 37, 1-(4,4-difluorocyclohexyl)-6-(((6-nitrobenzo[d]oxazol-2-yl)methyl)thio)-1,5-dihydro-4H-pyrazolo[3,4-d]pyrimidin-4-one], the IC50 rises from 6 nM to 74 nM (12-fold).

Compared with O=c1[nH]c(SCc2nc3cc(Cl)cc(Cl)c3o2)nc2c1cnn2C1CCOCC1 [Example 54, 6-(((5,7-dichlorobenzo[d]oxazol-2-yl)methyl)thio)-1-(tetrahydro-2H-pyran4-yl)-1,5-dihydro-4H-pyrazolo[3,4-d]pyrimidin-4-one], O=c1[nH]c(SCc2nc3cc(Cl)cc(Cl)c3o2)nc2c1cnn2C1CCC(F)(F)CC1 [Example 43, 6-(((5,7-dichlorobenzo[d]oxazol-2-yl)methyl)thio)-1-(4,4-difluorocyclohexyl)-1,5-dihydro-4H-pyrazolo[3,4-d]pyrimidin-4-one] is 6.3-fold higher in IC50: 19 nM for the first, 120 nM for the second. The first is the more potent here.

Going from O=c1[nH]c(SCc2nc3ccccc3o2)nc2c1cnn2C1CC1 [Example 10, 6-((benzo[d]oxazol-2-ylmethyl)thio)-1-cyclopropyl-1,5-dihydro-4H-pyrazolo[3,4-d]pyrimidin-4-one] to O=c1[nH]c(SCc2nc3ccccc3o2)nc2c1cnn2C1CCSCC1 [Example 9, 6-((benzo[d]oxazol-2-ylmethyl)thio)-1-(tetrahydro-2H-thiopyran-4-yl)-1,5-dihydro-4H-pyrazolo[3,4-d]pyrimidin-4-one], the IC50 falls from 220 nM to 6 nM (37-fold).

Compared with Cc1ccc2nc(CSc3nc4c(cnn4C4CCSCC4)c(=O)[nH]3)oc2c1 [Example 15, 6-(((6-methylbenzo[d]oxazol-2-yl)methyl)thio)-1-(tetrahydro-2H-thiopyran-4-yl)-1,5-dihydro-4H-pyrazolo[3,4-d]pyrimidin-4-one], Cc1ccc2nc(CSc3nc4c(cnn4C(C)C)c(=O)[nH]3)oc2c1 [Example 18, 6-(((6-methylbenzo[d]oxazol-2-yl)methyl)thio)-1-isopropyl-1,5-dihydro-4H-pyrazolo[3,4-d]pyrimidin-4-one] is 2.5-fold lower in IC50: 10 nM for the first, 4 nM for the second. The second is the more potent here.

Compared with Cc1cc(C)c2oc(CSc3nc4c(cnn4C4CCOCC4)c(=O)[nH]3)nc2c1 [Example 55, 6-(((5,7-dimethylbenzo[d]oxazol-2-yl)methyl)thio)-1-(tetrahydro-2H-pyran-4-yl)-1,5-dihydro-4H-pyrazolo[3,4-d]pyrimidin-4-one], Cc1cc(C)c2oc(CSc3nc4c(cnn4-c4ccccc4)c(=O)[nH]3)nc2c1 [Example 33, 6-(((5,7-dimethylbenzo[d]oxazol-2-yl)methyl)thio)-1-phenyl-1,5-dihydro-4H-pyrazolo[3,4-d]pyrimidin-4-one] is 95-fold higher in IC50: 10 nM for the first, 950 nM for the second. The first is the more potent here.

First: O=c1[nH]c(SCc2nc3cc([N+](=O)[O-])ccc3o2)nc2c1cnn2C1CCC(F)(F)CC1 [Example 38, 1-(4,4-difluorocyclohexyl)-6-(((5-nitrobenzo[d]oxazol-2-yl)methyl)thio)-1,5-dihydro-4H-pyrazolo[3,4-d]pyrimidin-4-one]
Second: CC(Sc1nc2c(cnn2-c2ccccc2)c(=O)[nH]1)c1nc2ccccc2o1 (centres unmarked) [Example 19, 6-((1-(benzo[d]oxazol-2-yl)ethyl)thio)-1-phenyl-1,5-dihydro-4H-pyrazolo[3,4-d]pyrimidin-4-one]
The IC50 of the first is 1.6-fold higher: 45 nM for the first, 28 nM for the second. The second is the more potent here.
